pIC50: −log10 of the molar value. Read-outs that look alike come from different tables or passages of the source.
Biological target: human TRPV4 (Homo sapiens (Human), UniProt Q9HBA0)
Test: FLIPR assay for hTRPV4 expressed in BHK cells
Format: cell-based
Experimental: FLIPR Assay for hTRPV4 Expressed in BHK Cells:
TRPV4 channel activation results in an influx of divalent and monovalent cations including calcium. The resulting changes in intracellular calcium were monitored using a calcium specific fluorescent dye Fluo-4 (MDS Analytical Technologies). BHK/AC9 cells transduced with BacMam virus expressing the human TRPV4 gene at a MOI of 78 were plated in a 384 well poly-D lysine coated plate (15,000 cells/well in 50 μL culture medium containing DMEM/F12 with 15 mM HEPES, 10% FBS, 1% Penicillin-Streptomycin and 1% L-glutamine). Cells were incubated for 24 hours at 37° C. and 5% CO2. Culture medium was then aspirated using a Tecan plate-washer and replaced with 20 μL/well of dye loading buffer: HBSS, 500 μM Brilliant Black (MDS Analytical Technologies), and 2 μM Fluo-4 AM. Dye loaded plates were then incubated in the dark at room temperature for 1˜1.5 hours.

[1] = average in at least one set of experimental runs, inhibition of Agonist Compound-induced calcium signal, read-out: average IC50
[2] = inhibition of Agonist Compound-induced calcium signal (agonist at EC80), BHK/AC9 cells expressing human TRPV4, read-out: IC50

Sequence of human TRPV4 (Q9HBA0 whole entry): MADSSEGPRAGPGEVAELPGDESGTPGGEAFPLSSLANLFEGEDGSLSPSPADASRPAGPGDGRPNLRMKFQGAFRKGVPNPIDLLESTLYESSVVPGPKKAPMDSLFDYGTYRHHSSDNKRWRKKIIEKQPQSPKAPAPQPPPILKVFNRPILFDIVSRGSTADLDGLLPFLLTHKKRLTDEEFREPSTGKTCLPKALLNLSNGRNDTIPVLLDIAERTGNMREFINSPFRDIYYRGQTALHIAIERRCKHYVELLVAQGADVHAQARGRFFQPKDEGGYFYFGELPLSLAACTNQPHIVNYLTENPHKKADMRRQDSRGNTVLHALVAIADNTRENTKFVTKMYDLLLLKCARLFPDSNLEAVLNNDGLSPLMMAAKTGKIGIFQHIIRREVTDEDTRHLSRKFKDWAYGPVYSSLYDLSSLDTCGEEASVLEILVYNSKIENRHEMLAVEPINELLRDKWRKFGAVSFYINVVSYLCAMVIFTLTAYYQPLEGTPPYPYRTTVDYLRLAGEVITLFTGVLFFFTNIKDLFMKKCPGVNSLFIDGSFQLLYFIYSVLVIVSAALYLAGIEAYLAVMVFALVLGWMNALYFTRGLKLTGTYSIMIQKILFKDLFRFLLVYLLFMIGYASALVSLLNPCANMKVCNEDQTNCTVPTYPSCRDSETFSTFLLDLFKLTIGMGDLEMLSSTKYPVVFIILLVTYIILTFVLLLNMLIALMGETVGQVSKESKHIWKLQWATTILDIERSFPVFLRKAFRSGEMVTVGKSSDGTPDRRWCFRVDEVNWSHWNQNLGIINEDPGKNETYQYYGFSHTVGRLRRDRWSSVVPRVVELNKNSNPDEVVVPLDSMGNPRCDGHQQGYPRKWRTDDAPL

N#Cc1ccc(C[C@H]2CN(S(=O)(=O)c3ccc(Cl)cc3Cl)C[C@@]2(O)CO)cc1F [Example 1, 4-(((3S,4R)-1-((2,4-dichlorophenyl)sulfonyl)-4-hydroxy-4-(hydroxymethyl)pyrrolidin-3-yl)methyl)-2-fluorobenzonitrile]
pIC50 [1]: 8.10
pIC50 [2]: 8.00 to 10.00

N#Cc1ccc(C[C@H]2CN(S(=O)(=O)c3ccc(C(F)(F)F)cc3Cl)C[C@@]2(O)CO)cc1 [Example 2, 4-(((3S,4R)-1-((2-chloro-4-(trifluoromethyl)phenyl)sulfonyl)-4-hydroxy-4-(hydroxymethyl)pyrrolidin-3-yl)methyl)benzonitrile]
pIC50 [2]: 7.00 to 8.00

N#Cc1ccc(C[C@H]2CN(S(=O)(=O)c3ccc(Cl)cn3)C[C@@]2(O)CO)c(OCC(F)(F)F)c1 [Example 3, 4-(((3S,4R)-1-((5-chloropyridin-2-yl)sulfonyl)-4-hydroxy-4-(hydroxymethyl)pyrrolidin-3-yl)methyl)-3-(2,2,2-trifluoroethoxy)benzonitrile]
pIC50 [2]: 7.00 to 8.00

N#Cc1ccc(C[C@H]2CN(S(=O)(=O)c3ccc(Cl)cc3Cl)C[C@]2(O)CO)cc1F [Example 4, 4-(((3S,4S)-1-((2,4-dichlorophenyl)sulfonyl)-4-hydroxy-4-(hydroxymethyl)pyrrolidin-3-yl)methyl)-2-fluorobenzonitrile]
pIC50 [2]: 7.00 to 8.00

N#Cc1ccc(C[C@H]2CN(S(=O)(=O)c3ccc(C(F)(F)F)cc3C#N)C[C@@]2(O)CO)cc1F [Example 5, 4-(((3S,4R)-1-((2-cyano-4-(trifluoromethyl)phenyl)sulfonyl)-4-hydroxy-4-(hydroxymethyl)pyrrolidin-3-yl)methyl)-2-fluorobenzonitrile]
pIC50 [2]: 8.00 to 10.00

N#Cc1ccc(S(=O)(=O)N2C[C@H](Cc3ccc(C#N)c(F)c3)[C@](O)(CO)C2)c(Cl)c1 [Example 6, 4-(((3S,4R)-1-((2-chloro-4-cyanophenyl)sulfonyl)-4-hydroxy-4-(hydroxymethyl)pyrrolidin-3-yl)methyl)-2-fluorobenzonitrile]
pIC50 [2]: 8.00 to 10.00

N#Cc1ccc(C[C@H]2CN(S(=O)(=O)c3ccc(Cl)cn3)C[C@@]2(O)CN)cc1F [Example 7, 4-(((3S,4S)-4-(aminomethyl)-1-((5-chloropyridin-2-yl)sulfonyl)-4-hydroxypyrrolidin-3-yl)methyl)-2-fluorobenzonitrile]
pIC50 [1]: 8.00
pIC50 [2]: 8.00 to 10.00

From patent publication US10590077B2, “TRPV4 antagonists” (GlaxoSmithKline Intellectual Property (No.2) Limited, priority 2016, dated 2020)
